{"source": "patent US12569529B2", "about": "“Natural combination products and methods for regulation of kidney and excretory system function” (Pure Care Pro LLC, priority 2018, dated 2026)", "origin": "cited, not measured here", "key": {"[1]": {"system": "patients with CKD"}, "[2]": {"system": "kidney proximal tubular cells", "conditions": "kidney proximal tubular cells in culture"}}, "data": [{"compound": "vitamin E", "values": [{"measurement": "ADMA levels", "setting": "[1]", "value": "reductions"}]}, {"compound": "Cc1c(C)c2c(c(C)c1O)CC[C@@](C)(CCC[C@H](C)CCC[C@H](C)CCCC(C)C)O2", "note": "[α-tocopherol]", "values": [{"measurement": "cisplatin-induced reactive oxygen species (ROS)", "setting": "[2]", "value": "decreased"}, {"measurement": "cell viability", "setting": "[2]; cisplatin", "value": "increased"}]}]}
